{
  "source": "patent US20080064088A1",
  "about": "“DEVICES AND METHODS FOR PHARMACOKINETIC-BASED CELL CULTURE SYSTEM” (priority 2006, published 2008)",
  "key": {"[1]": {"tested_on": "HCT-116 human colon cancer cells", "settings": "for cell death of HCT-116 cells, chip seeded with HCT-116 cells only: no cells in the liver compartment, 24 hours", "experimental": "FIG. 16 Tegafur dose response. […] The chips were treated with indicated concentrations of tegafur for 24 hours. The first graph (FIG. 16A) is a plot of percentage dead cells vs. tegafur or 5-FU concentration after 24 hours of re-circulation on the chip. The second graph (FIG. 16B) is a similar dose response using a traditional in vitro cell culture assay with HCT 116 cells using a 48 hour exposure. HCT-116 cells were seeded on poly-lysine treated glass coverslips and exposed to either tegafur or 5-FU at the indicated concentrations. After a 48 hr incubation, coverslips were treated as described above and the percentage of cell death was determined.\n(§1) LIVE/DEAD stain is a two-component stain consisting of calcein AM and ethidium homodimer. Living cells actively hydrolyze the acetoxymethyl ester (AM) moiety of calcein AM to produce bright green fluorescence of calcein. In contrast, cells that have compromised membrane integrity allow the normally membrane impermeant ethidium homodimer to stain the nucleus of dead or dying cells fluorescent red. The cell permeant nuclear stain, Hoechst 33342 acts as a general stain for all cells. Together with the appropriate filter sets, living cells fluoresce green, dying or dead cells red, and all cells are quantified by a blue nuclear fluorescence. For experiments described herein, trypan blue was used at 0.2% (w/v), calcein AM at 1:20,000, propidium iodide at 1:5,000, and Hoechst 33342 at 10 μg/ml. Cells were visualized with a M2Bio stereofluorescence microscope (Zeiss). All experiments were repeated at least three times and measurements done in triplicate.\n[…] Tegafur was added to the re-circulating medium at various concentrations for 24 hours and the cells labeled with Hoechst 33342, a membrane permeable DNA dye, and ethidium homodimer, a membrane impermeable DNA dye (see Methods Section)."}, "HCT-116 cells": {"tested_on": "HCT-116 cells", "assay": "Traditional in vitro cell culture assay, HCT-116 on poly-lysine treated glass coverslips", "type": "cell-based, human", "settings": "for cytotoxicity to HCT-116 cells, traditional cell culture assay: 48 hr incubation", "experimental": "FIG. 16 Tegafur dose response. Chips were seeded with HepG2-C3A cells in the liver compartment and HCT-116 colon cancer cells in the target tissues compartment. The chips were treated with indicated concentrations of tegafur for 24 hours. The first graph (FIG. 16A) is a plot of percentage dead cells vs. tegafur or 5-FU concentration after 24 hours of re-circulation on the chip. The second graph (FIG. 16B) is a similar dose response using a traditional in vitro cell culture assay with HCT 116 cells using a 48 hour exposure. HCT-116 cells were seeded on poly-lysine treated glass coverslips and exposed to either tegafur or 5-FU at the indicated concentrations. After a 48 hr incubation, coverslips were treated as described above and the percentage of cell death was determined.\nTo measure the cytotoxic effects of tegafur against colon cancer cells, the microscale chip was prepared with HepG2-C3A cells in the liver compartment and HCT-116 human colon cancer cells in the target tissue compartment. Tegafur was added to the re-circulating medium at various concentrations for 24 hours and the cells labeled with Hoechst 33342, a membrane permeable DNA dye, and ethidium homodimer, a membrane impermeable DNA dye (see Methods Section)."}, "HepG2/C3A cells [2]": {"tested_on": "HepG2/C3A cells", "assay": "LIVE/DEAD assay on poly-D-lysine treated glass coverslips", "type": "cell-based, human", "settings": "1 μM, 24 hours", "source_text": "as §1\nThe LIVE/DEAD assay was optimized (see Methods section) using cells grown on glass coverslips. Briefly, HepG2/C3A cells were seeded onto poly-D-lysine treated glass coverslips and treated with and without 1 μM staurosporine for 24 hours. […]"}, "HCT116 cells [3]": {"tested_on": "HCT116 cells", "assay": "LIVE/DEAD cytotoxicity assay on microscale chip system", "type": "cell-based, human", "settings": "1 μM, 24 hour treatment, compared to untreated control cell chips", "source_text": "as §1\n(§2) Two different assays to detect apoptosis were investigated. The first assay was the immunofluorescence-based terminal deoxynucleotidyl transferase BrdU nick end labeling (TUNEL) technique available in kit form as APOPTAG™ (Intergen Co., MA) (see Methods section)."}, "HepG2/C3A cells [4]": {"tested_on": "HepG2/C3A cells", "assay": "APOPTAG (TUNEL) apoptosis assay on glass coverslips", "type": "cell-based, human", "settings": "1 μM, 24-hour incubation, compared to untreated controls", "source_text": "(§3) In contrast to annexin V labeling, the APOPTAG™ kit (Intergen Co., MA) uses terminal deoxynucleotidyl transferase to label free 3′-OH DNA termini exposed during apoptotic DNA degradation and visualization using immunofluorescence (Li, X., Traganos, F., Melamed, M. R., and Darzynkiewicz, Z. (1995). Single-step procedure for labeling DNA strand breaks with flourescein-or BODIPY-conjugated deoxynucleotides: detection of apoptosis and bromodeoxyuridine incorporation. Cytometry 20, 172-180). Although this method is highly specific for apoptosis, the procedure cannot be done on-chip due to the fixation and incubation steps. Briefly, microscale chips were run under specified experimental conditions, the cell chips were removed from their housing units, fixed in 1% paraformaldehyde and processed with the APOPTAG™ kit using the manufacturer's protocol.\nas §2, with “section). The assay was first optimized using cells grown on glass coverslips. Briefly, HepG2/C3A cells were seeded onto poly-D-lysine treated glass coverslips and treated with and without staurosporine. Coverslips were processed as described (see Methods section). […]” for “section).”"}, "HCT116 cells [5]": {"tested_on": "HCT116 cells", "assay": "APOPTAG (TUNEL) apoptosis assay on microscale chip system", "type": "cell-based, human", "settings": "1 μM, 24 hour exposure, compared to untreated controls", "source_text": "as §3\nas §2, with “section). The assay was first optimized using cells grown on glass coverslips. Briefly, HepG2/C3A cells were seeded onto poly-D-lysine treated glass coverslips and treated with and without staurosporine. Coverslips were processed as described (see Methods section). […]” for “section).”"}, "[6]": {"tested_on": "HepG2/C3A cells in the liver compartment and HCT116 cells in the target tissues compartment", "assay": "Annexin V-FITC apoptosis assay on microscale chip system", "type": "cell-based, human", "settings": "1 μM, 6-hour treatment, compared to untreated control cell chips", "method": "With the microscale chip, annexin V-FITC labeling was visualized directly on-chin, by first flushing the system with PBS, then recirculating annexin V-FITC (10 μg/ml in annexin V binding buffer, Clontech) for 30 min. Cells were then visualized directly using a FITC filter set.\nThe annexin V-FITC was used to detect apoptosis in the microscale chip system as described in the Methods section. Briefly, the microscale chip cell chips were seeded with HepG2/C3A cells in the liver compartment and HCT116 cells in the target tissues compartment. Cell chips were loaded onto the microscale chip system and treated with and without 1 μM staurosporine as described above. After a 6-hour incubation, the re-circulating medium was switched to PBS containing Annexin V-FITC and Hoechst 33342 and allowed to flow through the system for 30 minutes. Cell chips were removed from the acrylic housing and visualized under a fluorescent microscope. Cells were visualized under a fluorescent microscope and fluorescent images of identical fields were obtained using the appropriate filter sets."}, "[7]": {"tested_on": "HT29 human colon cancer cells", "assay": "Microscale chip, HepG2-C3A liver compartment and HT29 target tissue compartment, live/dead fluorescence", "type": "cell-based", "settings": "24 hours; for efficacy against HT-29 colon cancer cells (mutant p53) in the chip: chip with HepG2-C3A liver compartment", "source_text": "as §1"}},
  "note": "“Also recorded” adds a separate entry of the source.",
  "data": [
    {"smiles": "O=c1[nH]cc(F)c(=O)[nH]1", "note": "[5-FU, 5-fluorouracil]", "values": [
      {"measurement": "cell death of HCT-116 cells, chip seeded with HCT-116 cells only", "setting": "[1]", "value": "caused substantial cell death"},
      {"measurement": "exposure at which cytotoxicity was observed, traditional cell culture assay", "setting": "HCT-116 cells", "value": 48, "unit": "h"},
      {"measurement": "cytotoxicity to HCT-116 cells, traditional cell culture assay", "setting": "HCT-116 cells", "value": "triggered cell death"}
    ]},
    {"smiles": "CN[C@@H]1C[C@H]2O[C@@](C)([C@@H]1OC)n1c3ccccc3c3c4c(c5c6ccccc6n2c5c31)C(=O)NC4", "note": "[Staurosporine]", "values": [
      {"measurement": "cell death of HepG2/C3A cells (LIVE/DEAD)", "setting": "HepG2/C3A cells [2]", "value": "clearly cause cell death"},
      {"measurement": "cell death of HCT116 cells (LIVE/DEAD) on chip", "setting": "HCT116 cells [3]", "value": "Significant cell death; also recorded: significant apoptosis (or cytotoxicity)"},
      {"measurement": "apoptosis of HepG2/C3A cells (APOPTAG)", "setting": "HepG2/C3A cells [4]", "value": "significant apoptosis"},
      {"measurement": "apoptosis of HCT116 cells (APOPTAG) on chip", "setting": "HCT116 cells [5]", "value": "significant apoptosis (or cytotoxicity)"},
      {"measurement": "apoptosis (annexin V-FITC) on chip", "setting": "[6]", "value": "significant apoptosis"}
    ]},
    {"smiles": "CC1=C(CC(=O)O)c2cc(F)ccc2/C1=C\\c1ccc([S+](C)[O-])cc1", "note": "(stereo not drawn) [Sulindac, sulindac sulfoxide]", "values": [
      {"measurement": "cell death of HT29 cells in the chip", "setting": "[7]; One hundred micromoles in re-circulating medium, absence of the HepG2-C3A liver cells", "value": "minimal levels of cell death"},
      {"measurement": "efficacy against HT-29 colon cancer cells (mutant p53) in the chip", "setting": "[7]", "value": "effective"}
    ]},
    {"smiles": "O=c1[nH]c(=O)n(C2CCCO2)cc1F", "note": "(stereo not drawn) [Tegafur, 5-fluoro-1-(2-tetrahydrofuryl)-2,4(1H,3H)-pyrimidinedione]", "values": [
      {"measurement": "efficacy against HT-29 colon cancer cells (mutant p53) in the chip", "setting": "[7]", "value": "ineffective"},
      {"measurement": "cytotoxicity to HCT-116 cells in the microscale chip", "setting": "[1]", "value": "cytotoxic to HCT-116 cells in a dose-dependent fashion"},
      {"measurement": "exposure at which cytotoxicity was observed, microscale chip", "setting": "[1]", "value": 24, "unit": "h"},
      {"measurement": "cell death of HCT-116 cells, chip seeded with HCT-116 cells only", "setting": "[1]", "value": "did not cause significant cell death"},
      {"measurement": "cytotoxicity to HCT-116 cells, traditional cell culture assay", "setting": "HCT-116 cells", "value": "ineffective"}
    ]}
  ]
}
